The results in this text go back to patent US20170001990A1 (Genentech, Inc., priority 2014, published 2017).

The target in this assay is Human recombinant carboxy-terminal his-tagged LDHA (amino acids 2-332) (Homo sapiens, UniProt P00338). The experiment in a line: LDHA enzyme inhibition assay (NADH fluorescence). The following applies: LDHA IC50 (μM), 1 nM LDHA, NADH and pyruvate, stereochemistry of tested sample given.
As a reminder, the IC50 is the point on the concentration scale where inhibition reaches its midpoint. With `O=C1CC(c2ccsc2)(c2cccc(NCCC3CCCCC3)n2)NC(=O)C1Sc1ccccc1Cl` (stereo not drawn) [Example 220, 3-(2-chlorophenyl)sulfanyl-6-[6-(2-cyclohexyl-ethylamino)-2-pyridyl]-6-(3-thienyl)piperidine-2,4-dione], the IC50 came out at 0.162 µM. The figure for `O=C1CC(c2ccsc2)(c2cccc(OC3CCC3)n2)NC(=O)C1Sc1ccccc1Cl` (stereo not drawn) [Example 222, 3-(2-chlorophenyl)sulfanyl-6-[6-(cyclobutoxy)-2-pyridyl]-6-(3-thienyl) piperidine-2,4-dione] is 0.322 µM; for `O=C1CC(c2ccsc2)(c2cccc(OCC3CCC3)n2)NC(=O)C1Sc1ccccc1Cl` (stereo not drawn) [Example 224, 3-(2-chlorophenyl)sulfanyl-6-[6-(cyclobutylmethoxy)-2-pyridyl]-6-(3-thienyl) piperidine-2,4-dione] it is 0.02 µM; for `CC(C)(C)COc1cccc(C2(c3ccsc3)CC(=O)C(Sc3ccccc3Cl)C(=O)N2)n1` (stereo not drawn) [Example 226, 3-(2-chlorophenyl)sulfanyl-6-[6-(2,2-dimethylpropoxy)-2-pyridyl]-6-(3-thienyl) piperidine-2,4-dione] it is 0.02 µM. For the compound `Cn1ccnc1COc1cccc(C2(c3ccsc3)CC(=O)C(Sc3ccccc3Cl)C(=O)N2)n1` (stereo not drawn) [Example 229, 3-(2-chlorophenyl)sulfanyl-6-[6-[(1-methylimidazol-2-yl)methoxy]-2-pyridyl]-6-(3-thienyl)piperidine-2,4-dione], the IC50 was 0.011 µM.

In the case of `CC(C)(C)OCCOc1cccc(C2(c3ccsc3)CC(=O)C(Sc3ccccc3Cl)C(=O)N2)n1` (stereo not drawn) [Example 230, 6-[6-(2-tert-butoxyethoxy)-2-pyridyl]-3-(2-chloro-phenyl)sulfanyl-6-(3-thienyl)piperidine-2,4-dione], the IC50 was 0.022 µM. On to `CC(Oc1cccc(C2(c3ccsc3)CC(=O)C(Sc3ccccc3Cl)C(=O)N2)n1)C(F)(F)F` (stereo not drawn) [Example 231, 3-(2-chlorophenyl)sulfanyl-6-(3-thienyl)-6-[6-(2,2,2-trifluoro-1-methyl-ethoxy)-2-pyridyl]piperidine-2,4-dione], for which the IC50 was 0.009 µM.

Consider `O=C1CC(c2ccsc2)(c2cccc(N3CC(C4CCOCC4)C3)n2)NC(=O)C1Sc1ccccc1Cl` (stereo not drawn) [Example 232, 3-(2-chlorophenyl)sulfanyl-6-[6-(3-tetrahydropyran-4-ylazetidin-1-yl)-2-pyridyl]-6-(3-thienyl) piperidine-2,4-dione], for which the IC50 worked out at 0.009 µM. As for `O=C1CC(c2ccsc2)(c2cccc(N3CC(C4CCOCC4)C3)n2)NC(=O)C1Sc1ccccc1Cl` (stereo not drawn) [Example 240, 3-(2-chlorophenyl)sulfanyl-6-[6-(3-tetrahydropyran-4-ylazetidin-1-yl)-2-pyridyl]-6-(3-thienyl) piperidine-2,4-dione], the IC50 is 0.003 µM. On to `O=C(NCC1CC1)c1cccc(C2(c3ccsc3)CC(=O)C(Sc3ccccc3Cl)C(=O)N2)n1` (stereo not drawn) [Example 242, 6-[5-(2-chlorophenyl)sulfanyl-4,6-dioxo-2-(3-thienyl)-2-piperidyl]-N-(cyclopropylmethyl) pyridine-2-carboxamide], for which the IC50 came to 0.004 µM. Next, `COCC(C)Oc1cccc(C2(c3ccsc3)CC(=O)C(Sc3ccccc3Cl)C(=O)N2)n1` (stereo not drawn) [Example 246, 3-(2-chlorophenyl)sulfanyl-6-[6-(2-methoxy-1-methyl-ethoxy)-2-pyridyl]-6-(3-thienyl)piperidine-2,4-dione]: 0.01 µM; `CCOCC(C)Oc1cccc(C2(c3ccsc3)CC(=O)C(Sc3ccccc3Cl)C(=O)N2)n1` (stereo not drawn) [Example 247, 3-((2-chlorophenyl)thio)-6-(6-((1-ethoxypropan-2-yl)oxy)pyridin-2-yl)-6-(thiophen-3-yl)piperidine-2,4-dione]: 0.01 µM. For `CCC1(COc2cccc([C@@]3(c4ccsc4)CC(=O)C(Sc4ccccc4Cl)C(=O)N3)n2)COC1` (stereo partly drawn) [Example 248], the IC50 worked out at 0.005 µM. The figure for `COC(C)(C)CCOc1cccc(C2(c3ccsc3)CC(=O)C(Sc3ccccc3Cl)C(=O)N2)n1` (stereo not drawn) [Example 249, 3-(2-chlorophenyl)sulfanyl-6-[6-(3-methoxy-3-methyl-butoxy)-2-pyridyl]-6-(3-thienyl)piperidine-2,4-dione] is 0.099 µM.

As to `CC/C=C/COc1cccc(C2(c3ccsc3)CC(=O)C(Sc3ccccc3Cl)C(=O)N2)n1` (stereo not drawn) [Example 250, 3-(2-chlorophenyl)sulfanyl-6-(6-pent-2-enoxy-2-pyridyl)-6-(3-thienyl) piperidine-2,4-dione], the IC50 came out at 0.036 µM.

In the case of `O=C1CC(c2ccsc2)(c2cccc(OCC3CCC(CO)CC3)n2)NC(=O)C1Sc1ccccc1Cl` (stereo not drawn) [Example 253], the half-inhibitory concentration (IC50) stood at 0.081 µM. In the case of `COc1cc(-c2cccc(C3(c4ccsc4)CC(=O)C(Sc4ccccc4Cl)C(=O)N3)n2)ccc1F` (stereo not drawn) [Example 255, 3-((2-chlorophenyl)thio)-6-(6-(4-fluoro-3-methoxy-phenyl)pyridin-2-yl)-6-(thiophen-3-yl)piperidine-2,4-dione], the IC50 turned out to be 0.102 µM. In the case of `O=C1CC(c2ccsc2)(c2cccc(Cc3ccc(F)cc3)n2)NC(=O)C1Sc1ccccc1Cl` (stereo not drawn) [Example 257, 3-((2--chlorophenyl)thio)-6-(6-(4-fluorobenzyl)pyridin-2-yl)-6-(thiophen-3-yl)piperidine-2,4-dione], the IC50 was 0.016 µM. Turning to `O=C1CC(c2ccsc2)(c2cccc(Cc3ccc(F)cc3F)n2)NC(=O)C1Sc1ccccc1Cl` (stereo not drawn) [Example 258, 3-((2-chlorophenyl)thio)-6-(6-(2,4-difluorobenzyl)pyridin-2-yl)-6-(thiophen-3-yl)piperidine-2,4-dione], the IC50 amounted to 0.087 µM. The figure for `COc1cc(Cc2cccc(C3(c4ccsc4)CC(=O)C(Sc4ccccc4Cl)C(=O)N3)n2)ccc1F` (stereo not drawn) [Example 259, 3-((2-chlorophenyl)thio)-6-(6-(4-fluoro-3-methoxy-benzyl)pyridin-2-yl)-6-(thiophen-3-yl)piperidine-2,4-dione] is 0.011 µM; for `O=C1CC(c2ccsc2)(c2cccc(-c3ccncc3)n2)NC(=O)C1Sc1ccccc1Cl` (stereo not drawn) [Example 260, 6-([2,4′-bipyridin]-6-yl)-3-((2-chlorophenyl)thio)-6-(thiophen-3-yl)piperidine-2,4-dione] it is 0.006 µM; for `O=C1CC(c2ccsc2)(c2cccc(-c3ccnc(N4CCOCC4)c3)n2)NC(=O)C1Sc1ccccc1Cl` (stereo not drawn) [Example 261, 3-((2-chlorophenyl)thio)-6-(2′-morpholino-[2,4′-bipyridin]-6-yl)-6-(thiophen-3-yl)piperidine-2,4-dione] it is 0.039 µM. On to `CCN(c1ccc(F)cc1)c1cccc(C2(c3ccsc3)CC(=O)C(Sc3ccccc3Cl)C(=O)N2)n1` (stereo not drawn) [Example 263, 3-((2-chlorophenyl)thio)-6-(6-(ethyl(4-fluorophenyl)amino)pyridin-2-yl)-6-(thiophen-3-yl)piperidine-2,4-dione], for which the IC50 stood at 0.086 µM. As for `Cc1cc(Nc2cccc(C3(c4ccsc4)CC(=O)C(Sc4ccccc4Cl)C(=O)N3)n2)n(C)n1` (stereo not drawn) [Example 264, 3-((2-chlorophenyl)thio)-6-(6-((1,3-dimethyl-1H-pyrazol-5-yl)amino)pyridin-2-yl)-6-(thiophen-3-yl)piperidine-2,4-dione], the IC50 amounted to 0.077 µM. For the compound `O=C1CC(c2ccsc2)(c2cccc(CC3CCOCC3)n2)NC(=O)C1Sc1ccccc1Cl` (stereo not drawn) [Example 267, 3-((2-chlorophenyl)thio)-6-(6-((tetrahydro-2H-pyran-4-yl)methyl)pyridin-2-yl)-6-(thiophen-3-yl) piperidine-2,4-dione], the IC50 turned out to be 1.64 µM. With `Cn1nccc1Nc1cccc(C2(c3ccsc3)CC(=O)C(Sc3ccccc3Cl)C(=O)N2)n1` (stereo not drawn) [Example 269, 3-((2-chlorophenyl)thio)-6-(6-((1-methyl-1H-pyrazol-5-yl)amino)pyridin-2-yl)-6-(thiophen-3-yl)piperidine-2,4-dione], the IC50 was 0.073 µM.

For `Cn1ccc(Nc2cccc(C3(c4ccsc4)CC(=O)C(Sc4ccccc4Cl)C(=O)N3)n2)n1` (stereo not drawn) [Example 270, 3-((2-chlorophenyl)thio)-6-(6-((1-methyl-1H-pyrazol-3-yl)amino)pyridin-2-yl)-6-(thiophen-3-yl)piperidine-2,4-dione], the IC50 was determined as 0.099 µM. The figure for `Cn1cnc(Nc2cccc(C3(c4ccsc4)CC(=O)C(Sc4ccccc4Cl)C(=O)N3)n2)n1` (stereo not drawn) [Example 271, 3-((2-chlorophenyl)thio)-6-(6-((1-methyl-1H-1,2,4-triazol-3-yl)amino)pyridin-2-yl)-6-(thiophen-3-yl) piperidine-2,4-dione] is 0.355 µM; for `Cc1cc(Nc2cccc(C3(c4ccsc4)CC(=O)C(Sc4ccccc4Cl)C(=O)N3)n2)nn1C` (stereo not drawn) [Example 272, 3-((2-chlorophenyl)thio)-6-(6-((1,5-dimethyl-1H-pyrazol-3-yl)amino)pyridin-2-yl)-6-(thiophen-3-yl) piperidine-2,4-dione] it is 0.459 µM; for `COc1ccc(N(C)c2cccc(C3(c4ccsc4)CC(=O)C(Sc4ccccc4Cl)C(=O)N3)n2)cc1` (stereo not drawn) [Example 273, 3-((2-chlorophenyl)thio)-6-(6-((4-methoxyphenyl) (methyl)amino)pyridin-2-yl)-6-(thiophen-3-yl) piperidine-2,4-dione] it is 0.072 µM.

With `COc1cccc(N(C)c2cccc(C3(c4ccsc4)CC(=O)C(Sc4ccccc4Cl)C(=O)N3)n2)c1` (stereo not drawn) [Example 274, 3-((2-chlorophenyl)thio)-6-(6-((3-methoxyphenyl) (methyl)amino)pyridin-2-yl)-6-(thiophen-3-yl) piperidine-2,4-dione], the IC50 was found to be 0.157 µM. Regarding `CN(c1cccc(C(F)(F)F)c1)c1cccc(C2(c3ccsc3)CC(=O)C(Sc3ccccc3Cl)C(=O)N2)n1` (stereo not drawn) [Example 275, 3-((2-chlorophenyl)thio)-6-(6-(methyl(3-(trifluoromethyl)phenyl)amino)pyridin-2-yl)-6-(thiophen-3-yl)piperidine-2,4-dione], the IC50 was found to be 0.233 µM.

In the case of `Cc1cnc(Nc2cccc(C3(c4ccsc4)CC(=O)C(Sc4ccccc4Cl)C(=O)N3)n2)[nH]1` (stereo not drawn) [Example 276, 3-((2-chlorophenyl)thio)-6-(6-((5-methyl-1H-imidazol-2-yl)amino)pyridin-2-yl)-6-(thiophen-3-yl)piperidine-2,4-dione], the IC50 is 0.175 µM.
